Assay results: ChEMBL document CHEMBL4715697, “Synthesis and biological activity of benzamide DNA minor groove binders” (2016)

What was measured:
Assay type in all cases: functional
[1] = tested on: SNB-19; assay: Growth inhibition of human SNB-19 cells assessed as cell growth at 100 uM incubated for 48 hrs by sulforhodamine B assay relative to control; details: read-out: Activity
[2] = tested on: SNB-75; assay: Growth inhibition of human SNB-75 cells assessed as cell growth at 0.1 uM incubated for 48 hrs by sulforhodamine B assay relative to control; details: read-out: Activity
[3] = tested on: Malme-3M; assay: Growth inhibition of human Malme-3M cells assessed as cell growth at 0.1 uM incubated for 48 hrs by sulforhodamine B assay relative to control; details: read-out: Activity
[4] = tested on: SK-MEL-5; assay: Growth inhibition of human SK-MEL-5 cells assessed as cell growth at 100 uM incubated for 48 hrs by sulforhodamine B assay relative to control; details: read-out: Activity
[5] = tested on: KM12; assay: Growth inhibition of human KM12 cells assessed as cell growth at 1 uM incubated for 48 hrs by sulforhodamine B assay relative to control; details: read-out: Activity
[6] = tested on: OVCAR-5; assay: Growth inhibition of human OVCAR-5 cells assessed as cell growth at 1 uM incubated for 48 hrs by sulforhodamine B assay relative to control; details: read-out: Activity
[7] = tested on: PC-3; assay: Growth inhibition of human PC-3 cells assessed as cell growth at 0.01 uM incubated for 48 hrs by sulforhodamine B assay relative to control; details: read-out: Activity
[8] = tested on: MOLT-4; assay: Growth inhibition of human MOLT-4 cells assessed as cell growth at 100 uM incubated for 48 hrs by sulforhodamine B assay relative to control; details: read-out: Activity
[9] = tested on: OVCAR-8; assay: Growth inhibition of human OVCAR-8 cells assessed as cell growth at 1 uM incubated for 48 hrs by sulforhodamine B assay relative to control; details: read-out: Activity
[10] = tested on: MDA-MB-468; assay: Growth inhibition of human MDA-MB-468 cells incubated for 48 hrs by sulforhodamine B assay
[11] = tested on: TK-10; assay: Growth inhibition of human TK-10 cells incubated for 48 hrs by sulforhodamine B assay
[12] = tested on: UACC-257; assay: Growth inhibition of human UACC-257 cells assessed as cell growth at 0.01 uM incubated for 48 hrs by sulforhodamine B assay relative to control; details: read-out: Activity
[13] = tested on: NCI-H522; assay: Growth inhibition of human NCI-H522 cells assessed as cell growth at 1 uM incubated for 48 hrs by sulforhodamine B assay relative to control; details: read-out: Activity
[14] = tested on: OVCAR-5; assay: Growth inhibition of human OVCAR-5 cells assessed as cell growth at 0.01 uM incubated for 48 hrs by sulforhodamine B assay relative to control; details: read-out: Activity
[15] = tested on: NCI-H23; assay: Growth inhibition of human NCI-H23 cells assessed as cell growth at 1 uM incubated for 48 hrs by sulforhodamine B assay relative to control; details: read-out: Activity
[16] = tested on: HCC 2998; assay: Growth inhibition of human HCC 2998 cells incubated for 48 hrs by sulforhodamine B assay
[17] = tested on: ACHN; assay: Growth inhibition of human ACHN cells assessed as cell growth at 0.01 uM incubated for 48 hrs by sulforhodamine B assay relative to control; details: read-out: Activity
[18] = tested on: K562; assay: Growth inhibition of human K562 cells assessed as cell growth at 0.01 uM incubated for 48 hrs by sulforhodamine B assay relative to control; details: read-out: Activity
[19] = tested on: SK-MEL-5; assay: Growth inhibition of human SK-MEL-5 cells assessed as cell growth at 0.01 uM incubated for 48 hrs by sulforhodamine B assay relative to control; details: read-out: Activity
[20] = tested on: LOX IMVI; assay: Growth inhibition of human LOX IMVI cells assessed as cell growth at 0.01 uM incubated for 48 hrs by sulforhodamine B assay relative to control; details: read-out: Activity
[21] = tested on: HCT-15; assay: Growth inhibition of human HCT-15 cells assessed as cell growth at 1 uM incubated for 48 hrs by sulforhodamine B assay relative to control; details: read-out: Activity
[22] = tested on: OVCAR-8; assay: Growth inhibition of human OVCAR-8 cells assessed as cell growth at 0.01 uM incubated for 48 hrs by sulforhodamine B assay relative to control; details: read-out: Activity
[23] = tested on: HL-60(TB); assay: Growth inhibition of human HL-60(TB) cells assessed as cell growth at 0.01 uM incubated for 48 hrs by sulforhodamine B assay relative to control; details: read-out: Activity
[24] = tested on: A498; assay: Growth inhibition of human A498 cells assessed as cell growth at 100 uM incubated for 48 hrs by sulforhodamine B assay relative to control; details: read-out: Activity
[25] = tested on: SNB-75; assay: Growth inhibition of human SNB-75 cells incubated for 48 hrs by sulforhodamine B assay
[26] = tested on: RXF 393; assay: Growth inhibition of human RXF 393 cells assessed as cell growth at 1 uM incubated for 48 hrs by sulforhodamine B assay relative to control; details: read-out: Activity
[27] = tested on: HT-29; assay: Growth inhibition of human HT-29 cells incubated for 48 hrs by sulforhodamine B assay
[28] = tested on: NCI-H460; assay: Growth inhibition of human NCI-H460 cells incubated for 48 hrs by sulforhodamine B assay
[29] = tested on: U-251; assay: Growth inhibition of human U-251 cells assessed as cell growth at 100 uM incubated for 48 hrs by sulforhodamine B assay relative to control; details: read-out: Activity
[30] = tested on: SK-OV-3; assay: Growth inhibition of human SK-OV-3 cells assessed as cell growth at 0.1 uM incubated for 48 hrs by sulforhodamine B assay relative to control; details: read-out: Activity
[31] = tested on: Malme-3M; assay: Growth inhibition of human Malme-3M cells assessed as cell growth at 100 uM incubated for 48 hrs by sulforhodamine B assay relative to control; details: read-out: Activity
[32] = tested on: ACHN; assay: Growth inhibition of human ACHN cells assessed as cell growth at 100 uM incubated for 48 hrs by sulforhodamine B assay relative to control; details: read-out: Activity
[33] = tested on: NCI/ADR-RES; assay: Growth inhibition of human NCI/ADR-RES cells assessed as cell growth at 100 uM incubated for 48 hrs by sulforhodamine B assay relative to control; details: read-out: Activity
[34] = tested on: SNB-19; assay: Growth inhibition of human SNB-19 cells assessed as cell growth at 0.1 uM incubated for 48 hrs by sulforhodamine B assay relative to control; details: read-out: Activity
[35] = tested on: SK-OV-3; assay: Growth inhibition of human SK-OV-3 cells assessed as cell growth at 0.01 uM incubated for 48 hrs by sulforhodamine B assay relative to control; details: read-out: Activity
[36] = read-out: LC50 (the source's name)
[37] = read-out: pLC50 (the source's name) (converted)

CC(=O)Nc1cc(CO[Si](C)(C)C(C)(C)C)cc(NC(=O)c2ccc(C(=O)Nc3cccc(NC(=O)CCCN(C)C)c3)cc2)c1
growth at 100 µM [1]: 95% | growth at 0.1 µM [2]: 83% | growth at 0.1 µM [3]: 92% | growth at 100 µM [4]: 73% | growth at 1 µM [5]: 99% | growth at 1 µM [6]: 89% | growth at 0.01 µM [7]: 100% | growth at 100 µM [8]: 98% | growth at 1 µM [9]: 97% | GI50 ([10]; read-out: GI50): > 75 µM | CC50 [10, 36]: > 75 µM | TGI ([10]; read-out: TGI): > 75 µM | GI50 ([10]; read-out: pGI50 (converted)): > 75.9 µM | CC50 [10, 37]: > 75.9 µM | TGI ([10]; read-out: pTGI): > 75.9 µM | GI50 ([11]; read-out: GI50): > 75 µM | CC50 [11, 36]: > 75 µM | TGI ([11]; read-out: TGI): > 75 µM | GI50 ([11]; read-out: pGI50 (converted)): > 75.9 µM | CC50 [11, 37]: > 75.9 µM | TGI ([11]; read-out: pTGI): > 75.9 µM | growth at 0.01 µM [12]: 94% | growth at 1 µM [13]: 86% | growth at 0.01 µM [14]: 93% | growth at 1 µM [15]: 96% | GI50 ([16]; read-out: GI50): > 75 µM | CC50 [16, 36]: > 75 µM | TGI ([16]; read-out: TGI): > 75 µM | GI50 ([16]; read-out: pGI50 (converted)): > 75.9 µM | CC50 [16, 37]: > 75.9 µM | TGI ([16]; read-out: pTGI): > 75.9 µM | growth at 0.01 µM [17]: 100% | growth at 0.01 µM [18]: 93% | growth at 0.01 µM [19]: 98% | growth at 0.01 µM [20]: 101% | growth at 1 µM [21]: 87% | growth at 0.01 µM [22]: 102% | growth at 0.01 µM [23]: 102% | growth at 100 µM [24]: 51% | GI50 ([25]; read-out: GI50): > 75 µM | LC50 ([25]; read-out: LC50): > 75 µM | TGI ([25]; read-out: TGI): > 75 µM | GI50 ([25]; read-out: pGI50 (converted)): > 75.9 µM | LC50 ([25]; read-out: pLC50 (converted)): > 75.9 µM | TGI ([25]; read-out: pTGI): > 75.9 µM | growth at 1 µM [26]: 106% | GI50 ([27]; read-out: GI50): > 75 µM | CC50 [27, 36]: > 75 µM | TGI ([27]; read-out: TGI): > 75 µM | GI50 ([27]; read-out: pGI50 (converted)): > 75.9 µM | CC50 [27, 37]: > 75.9 µM | TGI ([27]; read-out: pTGI): > 75.9 µM | GI50 ([28]; read-out: GI50): > 75 µM | CC50 [28, 36]: > 75 µM | TGI ([28]; read-out: TGI): > 75 µM | GI50 ([28]; read-out: pGI50 (converted)): > 75.9 µM | CC50 [28, 37]: > 75.9 µM | TGI ([28]; read-out: pTGI): > 75.9 µM | growth at 100 µM [29]: 89% | growth at 0.1 µM [30]: 98% | growth at 100 µM [31]: 33% | growth at 100 µM [32]: 84% | growth at 100 µM [33]: 92% | growth at 0.1 µM [34]: 96% | growth at 0.01 µM [35]: 98%
